The nature of series [1]: Solubility in water and buffers. The conditions noted are these: buffer system None (unbuffered water). Type of series: physicochemical. The source says: By “soluble” or “solubility” is meant the property of a compound to dissolve in water, buffer, or other liquid, which may be measured in terms of mg·mL^−1. […] Examples of pharmaceutically acceptable buffers include those provided in Remington: The Science and Practice of Pharmacy, 22 ed., 2013, Pharmaceutical Press, London (Allen, L. V., Jr., ed.). […] Methods for evaluating the solubility of a compound include, for example, a 96-well plate-based assay in which aqueous suspensions of the compound are vacuum-filtered and the concentration of compound is measured by UV spectrophotometry (Roy et al (2001) Drug Dev Ind Pharm 27(1):107-109).

The nature of series [2]: Stability of salt forms under accelerated conditions of heat and humidity. Format: physicochemical. The protocol:
The stability of different salt forms of Compound A was assayed under accelerated conditions of heat and humidity for 7 and for 14 days. All salts were […] up to 40° C. and 75% relative humidity (RH), but appeared to degrade under severe temperature and humidity conditions of 80° C. with or without 80% relative humidity. (Table 3)

The conditions of series [3]: cited from earlier work.
The conditions of series [4]: cited from earlier work. This is another data set of the same source.
In series [5] the test system is cells. As to the kind of experiment: AP1903 amount needed in vitro for effective signaling of cells. Format: cell-based. The conditions noted are these: converted with 1600 Da. The protocol: The fixed dose of AP1903 for injection used, for example, may be 0.4 mg/kg intravenously infused over 2 hours. The amount of AP1903 needed in vitro for effective signaling of cells is 10-100 nM (1600 Da MVV). This equates to 16-160 μg/L or ˜[…] (1.6-160 μg/kg). Doses up to 1 mg/kg were well-tolerated in the Phase 1 study of AP1903 discussed above. Therefore, 0.4 mg/kg may be a safe and effective dose of AP1903 for this Phase I study in combination with the therapeutic cells.

The subject of series [6] is cells. Particulars: cited from earlier work.

Molecules are shown by their SMILES. Read-outs that look alike come from different tables or passages of the source.

This is an account of results in US20200308144A1, “Multimeric piperidine derivatives” (Bellicum Pharmaceuticals, Inc., priority 2017, published 2020).

As for `CC[C@H](C(=O)N1CCCC[C@H]1C(=O)O[C@H](CCc1ccc(OC)c(OC)c1)c1cccc(OCCN(C)CCN(C)CCOc2cccc([C@@H](CCc3ccc(OC)c(OC)c3)OC(=O)[C@@H]3CCCCN3C(=O)[C@@H](CC)c3cc(OC)c(OC)c(OC)c3)c2)c1)c1cc(OC)c(OC)c(OC)c1.O=P(O)(O)O` [Compound A.1], the “Inherent pH in parenthesis” value in series [1] came to 3.9. In addition, the “Assay (%)” value is on record as 96.2% in series [2] (25° C./60% RH, 7 D); 95.9% in series [2] (25° C./60% RH, 14 D); 95.6% in series [2] (40° C./75% RH, 7 D); 95.9% in series [2] (40° C./75% RH, 14 D); 94.9% in series [2] (80° C., 7 D); 93.3% in series [2] (80° C., 14 D). Further, the “Assay (%)” value in series [2] (80° C./80% RH, 7 D) is 85.2%; in series [2] (80° C./80% RH, 14 D), 77.7%.

Regarding `CC[C@H](C(=O)N1CCCC[C@H]1C(=O)O[C@H](CCc1ccc(OC)c(OC)c1)c1cccc(OCC(=O)NCCNC(=O)COc2cccc([C@@H](CCc3ccc(OC)c(OC)c3)OC(=O)[C@@H]3CCCCN3C(=O)[C@@H](CC)c3cc(OC)c(OC)c(OC)c3)c2)c1)c1cc(OC)c(OC)c(OC)c1` [rimiducid], in series [3] (0.01-1.0 mg/kg IV over 2 hours), the “plasma levels versus dose” value is on record as “directly proportional to dose”. The figures for the “plasma level as % of maximal concentration” value in series [3] (0.5 hours post-dose), in series [3] (2 hours post-dose) and in series [3] (10 hours post-dose) were “approximately 18%”, approximately 7% and approximately 1%, respectively. Further, the well-tolerated doses entry in series [3] (Phase 1 study) is listed as “up to 1 mg/kg”. Further, the “mean Cmax” value in series [3] (healthy volunteers, single doses 0.01-1.0 mg/kg infused IV over 2 hours) was 10 to 1275 ng/mL. In addition, in series [4], the solubility in water entry is given as “approximately 700 pM”. Besides, the “amount needed in vitro for effective signaling of cells, converted” value in the series on cells [5] lay within 16 to 160 µg/L. Moreover, in the series with cells [6], the “amount needed in vitro for effective signaling of cells” value is 10 to 100 nM.

Turning to `CC[C@H](C(=O)N1CCCC[C@H]1C(=O)O[C@H](CCc1ccc(OC)c(OC)c1)c1cccc(OCCN(C)CCN(C)CCOc2cccc([C@@H](CCc3ccc(OC)c(OC)c3)OC(=O)[C@@H]3CCCCN3C(=O)[C@@H](CC)c3cc(OC)c(OC)c(OC)c3)c2)c1)c1cc(OC)c(OC)c(OC)c1.O=C(O)/C=C/C(=O)O` [Fumarate], the “Inherent pH in parenthesis” value in series [1] was 3.4. Also, the “Assay (%)” value in series [2] (25° C./60% RH, 7 D) is reported as 97.5%; in series [2] (25° C./60% RH, 14 D), 97.1%; in series [2] (40° C./75% RH, 7 D) it was 97.2%; in series [2] (40° C./75% RH, 14 D), 96.8%; in series [2] (80° C., 7 D) it was 96.6%; in series [2] (80° C., 14 D), 95.8%. The “Assay (%)” value in series [2] (80° C./80% RH, 7 D) was 87.5%; in series [2] (80° C./80% RH, 14 D) it was 81.2%.

As to `CC[C@H](C(=O)N1CCCC[C@H]1C(=O)O[C@H](CCc1ccc(OC)c(OC)c1)c1cccc(OCCN(C)CCN(C)CCOc2cccc([C@@H](CCc3ccc(OC)c(OC)c3)OC(=O)[C@@H]3CCCCN3C(=O)[C@@H](CC)c3cc(OC)c(OC)c(OC)c3)c2)c1)c1cc(OC)c(OC)c(OC)c1.O=S(=O)(O)c1ccccc1`, in series [1], the “Inherent pH in parenthesis” value is reported as 4.3. The “Assay (%)” value was determined as 92.2% in series [2] (25° C./60% RH, 7 D); 91.7% in series [2] (25° C./60% RH, 14 D); 92.2% in series [2] (40° C./75% RH, 7 D); 92.2% in series [2] (40° C./75% RH, 14 D); 91.5% in series [2] (80° C., 7 D); 90.6% in series [2] (80° C., 14 D). For the same compound, the “Assay (%)” value is listed as 91.2% in series [2] (80° C./80% RH, 7 D) and 90. % in series [2] (80° C./80% RH, 14 D).

Turning to `CC[C@H](C(=O)N1CCCC[C@H]1C(=O)O[C@H](CCc1ccc(OC)c(OC)c1)c1cccc(OCCN(C)CCN(C)CCOc2cccc([C@@H](CCc3ccc(OC)c(OC)c3)OC(=O)[C@@H]3CCCCN3C(=O)[C@@H](CC)c3cc(OC)c(OC)c(OC)c3)c2)c1)c1cc(OC)c(OC)c(OC)c1.Cl` [Compound A.2], the “Inherent pH in parenthesis” value in series [1] is 2.9. Further, the “Assay (%)” value in series [2] (25° C./60% RH, 7 D) is recorded as 97.3%; in series [2] (25° C./60% RH, 14 D), 96.7%; in series [2] (40° C./75% RH, 7 D) it was 97.2%; in series [2] (40° C./75% RH, 14 D), 96.9%; in series [2] (80° C., 7 D) it was 96.3%; in series [2] (80° C., 14 D), 94.8%. Also, the “Assay (%)” value came out at 95.6% in series [2] (80° C./80% RH, 7 D) and 94.4% in series [2] (80° C./80% RH, 14 D).

As to `CC[C@H](C(=O)N1CCCC[C@H]1C(=O)O[C@H](CCc1ccc(OC)c(OC)c1)c1cccc(OCCN(C)CCN(C)CCOc2cccc([C@@H](CCc3ccc(OC)c(OC)c3)OC(=O)[C@@H]3CCCCN3C(=O)[C@@H](CC)c3cc(OC)c(OC)c(OC)c3)c2)c1)c1cc(OC)c(OC)c(OC)c1.O=S(=O)(O)O` [Sulphate], the “Inherent pH in parenthesis” value in series [1] is 3.06. Moreover, the “Assay (%)” value in series [2] (25° C./60% RH, 7 D) stood at 96.2%; in series [2] (25° C./60% RH, 14 D), 95.0%; in series [2] (40° C./75% RH, 7 D), 95.9%; in series [2] (40° C./75% RH, 14 D), 95.6%; in series [2] (80° C., 7 D), 95.3%; in series [2] (80° C., 14 D), 94.6%. Further, the “Assay (%)” value in series [2] (80° C./80% RH, 7 D) came to 88.2%; in series [2] (80° C./80% RH, 14 D), 85.4%.
